According to patent publication US10857246B2, “Nuclear imaging and radiotherapeutics agents targeting carbonic anhydrase IX and uses thereof” (THE JOHNS HOPKINS UNIVERSITY, priority 2015, dated 2020):
Where “and” joins values, the source holds several entries; their conditions need not be identical. Equal entries are not always repeated.

System: CAIX-expressing SK-RC-52 tumors
Assay: Biodistribution in mice bearing SK-RC-52 xenografts
Type: in vivo
Conditions: for Biodistribution Bladder / Biodistribution Blood / Biodistribution Brain / Biodistribution Fat / Biodistribution Heart / Biodistribution Kidney / Biodistribution Liver / Biodistribution Lung / Biodistribution Muscle / Biodistribution Pancreas / Biodistribution Small intestine / Biodistribution Spleen / Biodistribution Stomach / Biodistribution Tumor / Tumor/Kidney ratio / Tumor/Blood ratio / Tumor/Muscle ratio: 740 kBq i.v.
Protocol: Animal experiments were performed in accordance with protocols approved by the Johns Hopkins Animal Care and Use Committee (ACUC). Six-week-old female NOD/SCID mice were purchased from the Animal Resource Core of the Sidney Kimmel Comprehensive Cancer Center of Johns Hopkins and were subcutaneously injected in the lower left flank or upper right flank with 1×10^6 SK-RC-52 cells in RPMI 1640 GlutaMAX™ media (Life Technologies, Frederick, Md.) supplemented with 1% fetal bovine serum (FBS). Mice were monitored for tumor size and used for SPECT/CT imaging when the size of the tumor reached 100 mm^3.
Mice bearing SK-RC-52 xenografts at lower left flank were injected intravenously with 740 kBq (20 μCi) of [^111In]XYIMSR-01, or [^177Lu]XYIMSR-01 in 200 μL of PBS. For competitive blocking, same tumor bearing mice were injected with 740 kBq (20 μCi) of [^111In]XYIMSR-01 and 200 nmole of 8 in 200 μL of PBS. At 1 h, 4 h, 8 h, 24 h and 48 h post-injection, mice were sacrificed by cervical dislocation and the blood was immediately collected by cardiac puncture. Heart, lungs, pancreas, spleen, fat, brain, muscle, small intestines, liver, stomach, kidney, urinary bladder, and tumor were collected. Each organ was weighed and the tissue radioactivity was measured with an automated gamma counter (1282 Compugamma CS, Pharmacia/LKBNuclear, Inc., Mt. Waverly, Vic. Australia). The percentage of injected dose per gram of tissue (% ID/g) was calculated by comparison with samples of a standard dilution of the initial dose. All measurements were corrected for radioactive decay.
Data were expressed as mean±standard deviation (SD). Prism software (GraphPAD, San Diego, Calif.) was used to determine statistical significance. Statistical significance was calculated using a paired t test. P-values <0.0001 were considered significant.
Mice bearing SK-RC-52 xenografts within the lower left flank were injected intravenously with 740 kBq (20 μCi) of [Al^18F]XYIMSR-04 in 200 μL of PBS. At specific 1 hour time point mentioned in the paper, mice (n=5) were sacrificed by cervical dislocation and the blood was immediately collected by cardiac puncture. Heart, lungs, pancreas, spleen, fat, brain, muscle, small intestines, liver, bone, stomach, kidney, urinary bladder, and tumor were collected. Each organ was weighed and the tissue radioactivity was measured with an automated gamma counter (1282 Compugamma CS, Pharmacia/LKBNuclear, Inc., Mt. Waverly, Vic. Australia). The percentage of injected dose per gram of tissue (% ID/g) was calculated by comparison with samples of a standard dilution of the initial dose. All measurements were corrected for radioactive decay. Data were expressed as mean±standard deviation (SD). Prism software (GraphPAD, San Diego, Calif.) was used to determine statistical significance. Statistical significance was calculated using a paired t test. P-values <0.0001 were considered significant.
Mice bearing SK-RC-52 xenografts within the upper right flank were injected intravenously with 740 kBq (20 μCi) of [^64Cu]XYIMSR-06 in 200 μL of PBS. For in vivo competition (binding specificity) studies, tumor-bearing mice were injected with 740 kBq (20 μCi) of [^64Cu]XYIMSR-06 and 200 nmole of 8 in 200 μL of PBS concurrently. At specific times after injection (1 h, 4 h, 8 h and 24 h), mice (n=5) were sacrificed by cervical dislocation with blood immediately collected by cardiac puncture. Heart, lungs, pancreas, spleen, fat, brain, muscle, small intestines, liver, stomach, kidney, urinary bladder, and tumor were also collected. Each organ was weighed and the tissue radioactivity was measured with an automated gamma counter (1282 Compugamma CS, Pharmacia/LKBNuclear, Inc., Mt. Waverly, Vic. Australia). The percentage of injected dose per gram of tissue (% ID/g) was calculated by comparison with samples of a standard dilution of the initial dose. All measurements were corrected for radioactive decay. Data were expressed as mean±standard deviation (SD). […]

CC(CCC(=O)N[C@@H](CC(=O)N[C@@H](CC(=O)N[C@@H](CCCCn1cc(CCCC(=O)Nc2nnc(S(N)(=O)=O)s2)nn1)C(=O)NCCOCCOCCNC(=S)Nc1ccc(CC2CN(CC(=O)[O-])CCN(CC(=O)[O-])CCN2CC(=O)O)cc1)C(=O)O)C(=O)O)(c1ccc(O)cc1)c1ccc(O)cc1.[64Cu+2] (stereo partly drawn) [[^64Cu]XYIMSR-06]
Biodistribution Bladder (1 h post-injection): 11.12 % ID/g | Biodistribution Blood (1 h post-injection): 0.66 % ID/g | Biodistribution Brain (1 h post-injection): 1.46 % ID/g | Biodistribution Fat (1 h post-injection): 0.80 % ID/g | Biodistribution Heart (1 h post-injection): 3.41 % ID/g | Biodistribution Kidney (1 h post-injection): 33.65 % ID/g | Biodistribution Liver (1 h post-injection): 3.25 % ID/g | Biodistribution Lung (1 h post-injection): 25.52 % ID/g | Biodistribution Muscle (1 h post-injection): 1.28 % ID/g | Biodistribution Pancreas (1 h post-injection): 2.94 % ID/g | Biodistribution Small intestine (1 h post-injection): 7.35 % ID/g | Biodistribution Spleen (1 h post-injection): 0.36 % ID/g | Biodistribution Stomach (1 h post-injection): 14.80 % ID/g | Biodistribution Tumor (1 h post-injection): 14.47 % ID/g | Tumor/Kidney ratio (1 h post-injection): 0.4 | Biodistribution Bladder (4 h post-injection): 17.05 % ID/g | Biodistribution Blood (4 h post-injection): 0.33 % ID/g | Biodistribution Brain (4 h post-injection): 0.29 % ID/g | Biodistribution Fat (4 h post-injection): 0.52 % ID/g | Biodistribution Heart (4 h post-injection): 1.78 % ID/g | Biodistribution Kidney (4 h post-injection): 19.99 % ID/g | Biodistribution Liver (4 h post-injection): 2.18 % ID/g | Biodistribution Lung (4 h post-injection): 12.03 % ID/g | Biodistribution Muscle (4 h post-injection): 0.70 % ID/g | Biodistribution Pancreas (4 h post-injection): 1.36 % ID/g | Biodistribution Small intestine (4 h post-injection): 4.15 % ID/g | Biodistribution Spleen (4 h post-injection): 0.24 % ID/g | Biodistribution Stomach (4 h post-injection): 8.19 % ID/g | Biodistribution Tumor (4 h post-injection): 19.31 % ID/g | Tumor/Blood ratio (4 h post-injection): 57.7 | Tumor/Kidney ratio (4 h post-injection): 1.0 | Tumor/Muscle ratio (4 h post-injection): 29.4 | Biodistribution Bladder (8 h + block (200 nmole of 8)): 1.45 % ID/g | Biodistribution Blood (8 h + block (200 nmole of 8)): 0.08 % ID/g | Biodistribution Brain (8 h + block (200 nmole of 8)): 0.04 % ID/g | Biodistribution Fat (8 h + block (200 nmole of 8)): 0.05 % ID/g | Biodistribution Heart (8 h + block (200 nmole of 8)): 0.16 % ID/g | Biodistribution Kidney (8 h + block (200 nmole of 8)): 1.82 % ID/g | Biodistribution Liver (8 h + block (200 nmole of 8)): 0.55 % ID/g | Biodistribution Lung (8 h + block (200 nmole of 8)): 0.77 % ID/g | Biodistribution Muscle (8 h + block (200 nmole of 8)): 0.05 % ID/g | Biodistribution Pancreas (8 h + block (200 nmole of 8)): 0.14 % ID/g | Biodistribution Small intestine (8 h + block (200 nmole of 8)): 0.38 % ID/g | Biodistribution Spleen (8 h + block (200 nmole of 8)): 0.14 % ID/g | Biodistribution Stomach (8 h + block (200 nmole of 8)): 0.69 % ID/g | Biodistribution Tumor (8 h + block (200 nmole of 8)): 2.39 % ID/g | Tumor/Blood ratio (8 h + block (200 nmole of 8)): 32.0 | Tumor/Kidney ratio (8 h + block (200 nmole of 8)): 1.3 | Tumor/Muscle ratio (8 h + block (200 nmole of 8)): 53.0 | Biodistribution Bladder (8 h post-injection): 7.43 % ID/g | Biodistribution Blood (8 h post-injection): 0.13 % ID/g | Biodistribution Brain (8 h post-injection): 0.24 % ID/g | Biodistribution Fat (8 h post-injection): 0.28 % ID/g | Biodistribution Heart (8 h post-injection): 0.65 % ID/g | Biodistribution Kidney (8 h post-injection): 8.14 % ID/g | Biodistribution Liver (8 h post-injection): 0.99 % ID/g | Biodistribution Lung (8 h post-injection): 4.64 % ID/g | Biodistribution Muscle (8 h post-injection): 0.21 % ID/g | Biodistribution Pancreas (8 h post-injection): 0.47 % ID/g | Biodistribution Small intestine (8 h post-injection): 1.98 % ID/g | Biodistribution Spleen (8 h post-injection): 0.18 % ID/g | Biodistribution Stomach (8 h post-injection): 4.02 % ID/g | Biodistribution Tumor (8 h post-injection): 16.74 % ID/g | All other tumor/organ ratios (24 h): > 10.0 | Biodistribution Bladder (24 h + block (200 nmole of 8)): 0.45 % ID/g | Biodistribution Blood (24 h + block (200 nmole of 8)): 0.01 % ID/g | Biodistribution Brain (24 h + block (200 nmole of 8)): 0.02 % ID/g | Biodistribution Fat (24 h + block (200 nmole of 8)): 0.01 % ID/g | Biodistribution Heart (24 h + block (200 nmole of 8)): 0.08 % ID/g | Biodistribution Kidney (24 h + block (200 nmole of 8)): 0.48 % ID/g | Biodistribution Liver (24 h + block (200 nmole of 8)): 0.42 % ID/g | Biodistribution Lung (24 h + block (200 nmole of 8)): 0.29 % ID/g | Biodistribution Muscle (24 h + block (200 nmole of 8)): 0.04 % ID/g | Biodistribution Pancreas (24 h + block (200 nmole of 8)): 0.07 % ID/g | Biodistribution Small intestine (24 h + block (200 nmole of 8)): 0.19 % ID/g | Biodistribution Spleen (24 h + block (200 nmole of 8)): 0.11 % ID/g | Biodistribution Stomach (24 h + block (200 nmole of 8)): 0.29 % ID/g | Biodistribution Tumor (24 h + block (200 nmole of 8)): 1.20 % ID/g | Tumor/Blood ratio (24 h + block (200 nmole of 8)): 27.1 | Tumor/Kidney ratio (24 h + block (200 nmole of 8)): 2.4 | Tumor/Muscle ratio (24 h + block (200 nmole of 8)): 49.0 | Biodistribution Bladder (24 h post-injection): 0.34 % ID/g | Biodistribution Blood (24 h post-injection): 0.00 % ID/g | Biodistribution Brain (24 h post-injection): 0.13 % ID/g | Biodistribution Fat (24 h post-injection): 0.03 % ID/g | Biodistribution Heart (24 h post-injection): 0.12 % ID/g | Biodistribution Kidney (24 h post-injection): 0.90 % ID/g | Biodistribution Liver (24 h post-injection): 0.38 % ID/g | Biodistribution Lung (24 h post-injection): 1.27 % ID/g | Biodistribution Muscle (24 h post-injection): 0.02 % ID/g | Biodistribution Pancreas (24 h post-injection): 0.21 % ID/g | Biodistribution Small intestine (24 h post-injection): 0.47 % ID/g | Biodistribution Spleen (24 h post-injection): 0.09 % ID/g | Biodistribution Stomach (24 h post-injection): 0.65 % ID/g | Biodistribution Tumor (24 h post-injection): 6.2 % ID/g and 6.23 % ID/g | Tumor/Blood ratio (24 h post-injection): 142.6 | Tumor/Muscle ratio (24 h post-injection): 261.3 | Tumor uptake on co-injection of 200 nmole of 8 (mouse, in vivo): blocked tumor uptake | Radiotracer uptake within liver (within 24 h): no significant radiotracer uptake within liver
